Results as given in US5821329A, “Cyclic peptide inhibitors of β1 and β2 integrin-mediated adhesion” (Tanabe Seiyaku Co., Ltd., priority 1996, dated 1998).

Columns and labels:
[1] = test system: Jurkat cell adhesion to IL-1 stimulated endothelial cells (β1 integrins, α4 β1); assay: Jurkat-Endothelial Cell Adhesion Assay; format: cell-based, human; conditions: Jurkat T cells on IL-1 stimulated HUVEC; no unit printed in the table (text gives IC50 and test concentrations in μM); read-out: IC50 for adhesion inhibition Jurk-EC
Method: Jurkat-Endothelial Cell Adhesion Assay […] This assay measured the adhesive interactions of a T-cell line, Jurkat, known to express high levels of α4 β1, to endothelial cell monolayers in the presence of representative test compounds of the present invention. The test compounds were added in increasing concentrations to T-cells and then the T-cell/compound mixture was added to IL-1 stimulated endothelial cell monolayers. The plates were incubated, washed and the percentage of attached cells was quantitated. […] Human umbilical vein endothelial cells (HUVEC) were purchased from Clonetics (San Diego, Calif.) at passage number 2. The cells were grown on 0.5% porcine skin gelatin pre-coated flasks (Sigma, St. Louis, Mo.) in EGM-UV media (Clonetics, San Diego, Calif.) supplemented with 10% fetal bovine serum. Cells were re-fed every 2-3 days, reaching confluence by day 4 to 6. […] The endothelial cells were not used following passage 7. The T-cell line Jurkat was obtained from American Type Culture Collection and cultured in RPMI media containing 10% fetal calf serum. […] Following this incubation, the monolayers were washed twice with PBS containing 1 mM calcium chloride and 1 mM magnesium chloride and the plates were read using a Millipore Cytofluor 2300 (Marlboro, Mass.). […] Monolayers were also fixed in 3% paraformaldehyde and evaluated microscopically to verify the adhesion. […]

[2] = test system: JY cell adhesion to TNF stimulated endothelial cells (β2 integrins); assay: JY-Endothelial Cell adhesion assay; format: cell-based, human; conditions: JY B cells + PMA on rTNF-stimulated HUVEC; no unit printed in the table (text gives IC50 and test concentrations in μM); read-out: IC50 for adhesion inhibition JY-EC
Method: The JY-Endothelial Cell Assay
The following assay established the activity of the present compounds in inhibiting cell adhesion through β2 integrins in a representative in vitro system.
The human B cell line, JY, was cultured in RPMI media containing 10% fetal calf serum at 37° C., in a humidified CO2 atmosphere. Endothelial cells were grown to confluency in 96-well micro-titer assay plates, as in the Jurkat-EC assay. Before the assay, the endothelial cells were stimulated with 50 U/ml rTNF for 18-24 hours at 37° C. JY cells were loaded with the fluorescent dye indicator BCECF-AM as follows: JY cells were washed twice with HBSS and cells were resuspended in HBSS at 5×10^6 cells/ml; BCECF-AM (Molecular Probes), stock concentration=1 mg/ml in DMSO, was added to the JY cells to a final concentration of 2 μg/ml; cells were incubated in the dark at 37° C. for 30-45 minutes; washed twice with HBSS and used in the assay. […]
The assay plates were then typically incubated for 30 min at 37° C. and washed four times with PBS containing Mg^2+ and Ca^2+ (room temp). 100 μl of PBS containing Mg^2+ and Ca^2+ were added to each well and the fluorescence from the adherent BCECF-labelled cells was analyzed using a fluorescence plate reader. […]

IC50 [1] [µM]	IC50 [2] [µM]	Substance
267	–	(1-FCA)-Arg-Cys*-(β-Asp)-(ThioP)-Cys*-Ala-Ala-Asp-(OFm) [Compound 35]
106	–	(Ac)-Arg-Cys*-(β-Asp)-(ThioP)-Cys*-Ala-Asp-(OFm) [Compound 37]
–	353	(9-FAc)-Arg-Cys*-(β-Asp)-(ThioP)-Cys*-(Abu)-Lys [Compound 65]
–	52	(Fmoc)-Arg-Cys*-(β-Asp)-(ThioP)-Cys* [Compound 22]
